Like-named read-outs stand apart in the source and are kept apart here. Ends that are not written are not given here. Peptide text beside a SMILES is read from it.
Assays:
[1] = target: T1, CRF2R (Homo sapiens, UniProt Q13324); assay: CRF2R agonist activation (EC50 / Emax), called comparative CRF binding; type: cell-based
T1 sequence (Q13324 1-411): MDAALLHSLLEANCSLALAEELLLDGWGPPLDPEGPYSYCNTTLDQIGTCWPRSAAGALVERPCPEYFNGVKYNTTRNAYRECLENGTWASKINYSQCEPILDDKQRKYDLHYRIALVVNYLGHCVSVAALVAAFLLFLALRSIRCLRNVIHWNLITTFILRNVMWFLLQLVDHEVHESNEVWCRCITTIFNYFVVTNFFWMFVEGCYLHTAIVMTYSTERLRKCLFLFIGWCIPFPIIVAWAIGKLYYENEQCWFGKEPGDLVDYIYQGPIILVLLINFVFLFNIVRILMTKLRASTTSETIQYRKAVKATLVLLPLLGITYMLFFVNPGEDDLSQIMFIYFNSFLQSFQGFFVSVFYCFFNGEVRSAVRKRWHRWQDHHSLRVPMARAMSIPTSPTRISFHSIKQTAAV
Outline: (§1)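 Cells expressing human CRF1R or CRF2R are exposed to peptide or vehicle control, and receptor activation is read as cAMP induction, measured in cell lysates or via a CRE-linked reporter gene.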

[2] = target: T2, CRF1R (Homo sapiens, UniProt P34998); assay: CRF1R agonist activation (EC50 / Emax), called comparative CRF binding; type: cell-based
T2 sequence (P34998 24-415): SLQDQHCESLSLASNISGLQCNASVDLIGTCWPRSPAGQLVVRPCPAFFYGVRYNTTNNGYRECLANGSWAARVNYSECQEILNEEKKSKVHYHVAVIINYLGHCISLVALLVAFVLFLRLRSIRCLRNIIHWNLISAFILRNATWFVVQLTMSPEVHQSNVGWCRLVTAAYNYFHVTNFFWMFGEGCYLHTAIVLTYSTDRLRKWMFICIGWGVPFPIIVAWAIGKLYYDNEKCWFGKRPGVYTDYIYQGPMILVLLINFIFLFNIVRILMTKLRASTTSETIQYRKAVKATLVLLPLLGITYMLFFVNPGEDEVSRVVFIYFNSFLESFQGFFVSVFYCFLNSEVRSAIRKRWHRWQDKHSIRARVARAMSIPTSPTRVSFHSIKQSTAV
Outline: as §1

Molecule | Emax ([1]; read-out: CRF2R Emax) | Emax ([2]; read-out: CRF1R Emax) | further results
CC[C@H](C)[C@H](NC(=O)[C@H](CCC(N)=O)NC(=O)[C@H](C)NC(=O)[C@H](CCSC)NC(=O)[C@H](CC(C)C)NC(=O)[C@H](Cc1c[nH]cn1)NC(=O)[C@H](C)NC(=O)[C@H](CC(N)=O)NC(=O)[C@H](C)NC(=O)[C@H](C)NC(=O)[C@H](C)NC(=O)[C@H](CCC(N)=O)NC(=O)[C@H](C)NC(=O)[C@H](CCCNC(=N)N)NC(=O)[C@H](CC(C)C)NC(=O)[C@H](CC(N)=O)NC(=O)[C@H](CCCCN)NC(=O)[C@H](C)NC(=O)[C@H](CCCCN)NC(=O)[C@H](C)NC(=O)[C@@H](NC(=O)[C@H](CC(N)=O)NC(=O)[C@H](Cc1ccccc1)NC(=O)[C@H](CC(C)C)NC(=O)[C@H](CC(C)C)NC(=O)[C@H](CC(N)=O)NC(=O)[C@H](CCSC)NC(=O)[C@@H](NC(=O)[C@H](CC(N)=O)NC(=O)[C@@H](NC(=O)[C@@H]1CCCN1C(=O)[C@@H](NC(=O)[C@H](CC(=O)O)NC(=O)[C@H](CC(C)C)NC(=O)[C@H](CO)NC(=O)[C@H](CC(C)C)NC(=O)[C@@H](NC(=O)[C@H](Cc1ccccc1)NC(=O)[C@H](CCCCN)NC(=O)[C@@H](N)[C@@H](C)O)[C@@H](C)O)C(C)C)[C@@H](C)O)[C@@H](C)CC)[C@@H](C)CC)C(N)=O [hUroIII, human urocortin III, reference compound] (H-TKFTLSLDVPTNIMNLLFNIAKAKNLRAQAAANAHLMAQI-NH2) |  |  | Emax ([1]; Emax, read-out: CRF2R (Emax %)): 60%; Emax ([2]; Emax, read-out: CRF1R (Emax %)): 10.2%
CC[C@H](C)[C@H](NC(=O)[C@H](CC(=O)O)NC(=O)[C@H](CC(C)C)NC(=O)[C@H](CC(C)C)NC(=O)[C@H](CCCCN)NC(=O)[C@H](CCCNC(=N)N)NC(=O)[C@H](CC(N)=O)NC(=O)[C@H](CO)NC(=O)[C@H](Cc1c[nH]cn1)NC(=O)[C@H](C)NC(=O)[C@H](CCC(N)=O)NC(=O)[C@H](CCC(N)=O)NC(=O)[C@H](C)NC(=O)[C@H](CC(C)C)NC(=O)[C@H](CCC(N)=O)NC(=O)[C@H](CC(=O)O)NC(=O)[C@H](C)NC(=O)[C@H](CCCCN)NC(=O)[C@@H](NC(=O)[C@H](CCSC)NC(=O)[C@H](CCC(=O)O)NC(=O)[C@H](CC(C)C)NC(=O)[C@@H](NC(=O)[C@H](CCC(=O)O)NC(=O)[C@H](CCCNC(=N)N)NC(=O)[C@H](CC(C)C)NC(=O)[C@H](CC(C)C)NC(=O)[C@H](Cc1c[nH]cn1)NC(=O)[C@H](Cc1ccccc1)NC(=O)[C@@H](NC(=O)[C@H](CC(C)C)NC(=O)[C@H](CC(=O)O)NC(=O)[C@H](CC(C)C)NC(=O)[C@H](CO)NC(=O)[C@@H](NC(=O)[C@@H]1CCCN1C(=O)[C@@H]1CCCN1C(=O)[C@H](CCC(=O)O)NC(=O)[C@H](CCC(N)=O)NC(=O)[C@@H](N)CO)[C@@H](C)CC)[C@@H](C)O)C(C)C)[C@@H](C)O)C(=O)N[C@@H](C)C(N)=O [oCRF, sheep corticotropin releasing factor, reference compound] |  |  | EC50 [1]: > 100 nM; Emax ([1]; Emax, read-out: CRF2R (Emax %)): 33%; EC50 [2]: 27.4 nM; Emax ([2]; Emax, read-out: CRF1R (Emax %)): 98%
HHHHHHIVLSLDVPIGLLQILLEQARARAAREQATTNARILARN-NH2 [compound 296] | 65% | 4% | 
NDDPPISIDLPFFLLRNMIEMARIENEREQAGLNAKYLAEV-NH2 [compound 264] | 66.3% | 100% | 
NDDPPISIDLPFHLLRNMIEMARIENEREQAGLNAKYLAEV-NH2 [compound 262] | 92.2% | 100% | 
NDDPPISIDLPFLLLRNMIEMARIENEREQAGLNAKYLAEV-NH2 [compound 260] | 89.3% | 89.7% | EC50 ([1]; read-out: CRF2R EC50): ≥ 100 nM; EC50 ([2]; read-out: CRF1R EC50): 834 nM
NDDPPISIDLPFQLLRNMIEMARIENEREQAGLNAKYLAEV-NH2 [compound 258] | 49.3% | 23.6% | 
NDDPPISIDLPFYLLRNMIEMARIENEREQAGLNAKYLAEV-NH2 [compound 261] | 95.3% | 100% | 
NDDPPISIDLPLFLLRNMIEMARIENEREQAGLNAKYLAEV-NH2 [compound 257] | 72.6% | 83.5% | 
NDDPPISIDLPLHLLRNMIEMARIENEREQAGLNAKYLAEV-NH2 [compound 259] | 65% | 83.6% | 
NDDPPISIDLPLILLRNMIEMARIENEREQAGLNAKYLAEV-NH2 [compound 269] | 77.3% | 44.3% | 
